Experimental data reported in US20220062299A1, “USE OF GLUCOCORTICOID STEROIDS IN PREVENTING AND TREATING CONDITIONS OF MUSCLE WASTING, AGING AND METABOLIC DISORDER” (NORTHWESTERN UNIVERSITY, priority 2018, published 2022).

Tested on: mdx muscles
Assay: Muscle metabolomics of mdx quadriceps
Format: in vivo, mouse
Conditions: 4 wk exposure
Experimental: Muscle metabolomics. Total hydrophilic metabolite content was extracted from quadriceps muscle tissue at treatment endpoint through methanol-water (80:20) extraction, adapting conditions described previously (Bruno et al., 2018). Briefly, total metabolite content from quadriceps muscle was obtained from approximately 100 mg (wet weight) quadriceps muscle tissue per animal. Frozen (−80° C.) muscle was pulverized in liquid nitrogen and homogenized with approximately 250 μl 2.3 mm zirconia/silica beads (Cat #11079125z, BioSpec, Bartlesville, Okla.) in 1 ml methanol/water 80:20 (vol/vol) by means of Mini-BeadBeater-16 (Cat #607, Biospec, Bartlesville, Okla.) for 1 minute. After centrifuging at 5000 rpm for 5 minutes, 200 μl of supernatant were transferred into a tube pre-added with 800 μL of ice-cold methanol/water 80% (vol/vol). Samples were vortexed for 1 minute, and then centrifuged at approximately 20,160×g for 15 minutes at 4° C. Metabolite-containing extraction solution was then dried using SpeedVac (medium power). 200 ul of 50% Acetonitrile were added to the tube for reconstitution following by overtaxing for 1 minute. Samples solution were then centrifuged for 15 minutes at 20,000 g, 4° C. Supernatant was collected for LC-MS analysis for Hydrophilic Metabolites Profiling as follows. Samples were analyzed by High-Performance Liquid Chromatography and High-Resolution Mass Spectrometry and Tandem Mass Spectrometry (HPLC-MS/MS). Specifically, system consisted of a Thermo Q-Exactive in line with an electrospray source and an Ultimate3000 (Thermo) series HPLC consisting of a binary pump, degasser, and auto-sampler outfitted with a Xbridge Amide column (Waters; dimensions of 4.6 mm×100 mm and a 3.5 μm particle size). The mobile phase A contained 95% (vol/vol) water, 5% (vol/vol) acetonitrile, 20 mM ammonium hydroxide, 20 mM ammonium acetate, pH=9.0; B was 100% Acetonitrile. […] The capillary of the ESI source was set to 275° C., with sheath gas at 45 arbitrary units, auxiliary gas at 5 arbitrary units and the spray voltage at 4.0 kV. In positive/negative polarity switching mode, an m/z scan range from 70 to 850 was chosen and MS1 data was collected at a resolution of 70,000. The automatic gain control (AGC) target was set at 1×10^6 and the maximum injection time was 200 ms. The top 5 precursor ions were subsequently fragmented, in a data-dependent manner, using the higher energy collisional dissociation (HCD) cell set to 30% normalized collision energy in MS2 at a resolution power of 17,500. The sample volumes of 25 μl were injected. Data acquisition and analysis were carried out by Xcalibur 4.0 software and Tracefinder 2.1 software, respectively (both from Thermo Fisher Scientific). Metabolite levels were analyzed as peak area normalized to wet tissue weight and total […] content. Gene-metabolite pathway enrichment was conducted using the MetaboAnalyst platform (v4.0; Joint Pathway Analysis mode) (Chong et al., 2018). Pulsatile glucocorticoid exposure enhanced mitochondrial respiration in dystrophic muscle through BCAA. […] This correlated with increased catabolism of BCAAs, seen as reduced levels of precursors and intermediates and increased levels of oxoglutarate and succinate in the TCA cycle (FIG. 1B, center). […] Opposing shifts were confirmed by HPLC analyses of muscle ATP and NAD^+and by resting blood lactate (FIGS. 5A and 5B), and these changes correlated with parallel shifts in muscle glycogen content (FIG. 5C).

C[C@]12C=CC(=O)C=C1CC[C@@H]1[C@@H]2C(=O)C[C@@]2(C)[C@H]1CC[C@]2(O)C(=O)CO [prednisone, Prednisone]
BCAA and glucose catabolism (daily prednisone): substantial impairment
NAD+ and NADH in muscle (daily prednisone): loss
Glycolysis (levels of pyruvate and lactate) (weekly prednisone): increased
catabolism of BCAAs (weekly prednisone): increased
ATP, phosphocreatine, and NAD+ in muscle (weekly prednisone, vs vehicle): increased
